According to patent US20250387481A1, “PRE-TREATED T CELLS FOR USE AS A MEDICAMENT” (STICHTING HET NEDERLANDS KANKER INSTITUUT-ANTONI VAN …, priority 2022, published 2025):

Assays:
mouse splenic T cells = assay: MTT assessment of mouse splenic T cell survival following chemotherapy treatment in vitro; format: cell-based; settings: 10 nmol/L, 72 h
Experimental: (§1) About 100,000 T cells were seeded per well in a 96-well plate and treated with
(§2) increasing doses of docetaxel, paclitaxel, or carboplatin for 72 h. Next, T cells were incubated with Thiazolyl Blue Tetrazolium Bromide (0.5 mg/ml, Sigma Aldrich, Cat. No. 298-93-1) for 3 hr in the dark at 37 degrees Celsius. Subsequently, T cells were incubated for 16 h in the dark in a lysis buffer (40% dimerhylofrmamide, 0.55 mol/L sodium dodecyl sulfate, 2% acetic acid, 8.4 mmol/L HCl in MilliQ water). Plates were read with a 565 nm wavelength.

Jurkat T cells = assay: MTT assessment of Jurkat T cell survival; format: cell-based, human; settings: 5 nmol/L, 72 h
Experimental: Preparation of Jurkat T cells: Jurkat T cells were cultured in Roswell Park Memorial Institute (RPMI) 1640 Medium (Thermo Fisher Scientific, Cat. No. 21875034) containing FBS (10%, Thermo Fisher Scientific, Cat. No. A4766801), Penicillin/streptomycin (10,000 U/ml; Thermo Fisher Scientific, Cat. No. 15140-122), and Ultraglutamine (2 mmol/L, Lonza, Cat. No. BE17-605E/U1). Jurkat T cells were kept in 20% O2, 5% CO2 and at 37 degrees Celsius. Jurkat T cells were treated for 72 h with PBS or with docetaxel (docetaxel 5 nmol/L). Subsequently, Jurkat T cells were collected and washed 3 times in PBS to remove residual chemotherapy.
as §1, §2

tumor-reactive T cells = assay: Tumor recognition assay and viability of patient-derived tumor-reactive T cells; format: cell-based, human; settings: 10 nmol/L docetaxel
Experimental: Tumor-reactive patient T cells were generated by co-culturing PBMCs and autologous tumor organoids as described previously (Dekkers, J. F., et al. Nat Protoc, 2021. 16(4): p. 1936-1965; Cattaneo, C. M., et al. Nat Protoc, 2020. 15(1): p. 15-39). In brief, following incubation with 200 ng/ml IFNγ for 24 hr, patient tumor organoids were dissociated into single cell suspensions using TripLE Express. Tumor organoid cells were mixed with patient PBMCs ([…]) and […] were seeded in each well of a U-bottom 96-well plate pre-coated with 5 μg/ml αCD28 antibody. Co-culture medium consisted of RPMI 1640 supplemented with 2 mmol/L Ultraglutamine I, penicillin/streptomycin, 10% human AB serum, 150 U/ml rh-IL-2 and 20 μg/ml αPD1 blocking antibody (Merus, The Netherlands). Medium, IL-2 and αPD1 were refreshed every 2-3 days. PBMCs were harvested and re-stimulated every 7 days by re-plating with fresh tumor organoid cells. After two weeks of co-culture, PBMCs were harvested and used for downstream analysis or cryopreserved for later use.
Tumor-reactive PBMC were thawed in pre-warmed T cells medium and incubated for 15 minutes with 25 U/mL Benzonase. After washing, cells were re-suspended at 2−3×10^6 cells/ml in T cell medium and cultured overnight at 37° C. T cell medium consisted of RPMI 1640 supplemented with 2 mmol/L Ultraglutamine I, penicillin/streptomycin, 10% human AB serum and 150 U/ml rh-IL-2. The day after, PBMC were incubated with (or without) 10 nmol/L docetaxel for 48 h.
For evaluation of tumor reactivity, […] were re-stimulated with autologous tumor organoids or autologous healthy organoids (isolated from Geltrex for 48 h and stimulated with 200 ng/ml IFNγ for 24 h, as described in (Dekkers, J. F., et al. Nat Protoc, 2021. 16(4): p. 1936-1965; Cattaneo, C. M., et al. Nat Protoc, 2020. 15(1): p. 15-39; Voorwerk, L., et al. Nat Med, 2019. 25(6): p. 920-928) at a 2:1 effector: target ratio and seeded in αCD28 coated plates in the presence of 20 μg/ml αPD1 and co-cultured for 24 hours. At the end of the 24 h, 50 μl of the assay supernatant were taken on the side and used for the quantification of the secreted IFNγ. To this purpose, the Human IFN-γ Flex Set (BD bioscience) was used in accordance with the manufacturer's instructions. For the evaluation of CD137 expression, at the end of the 24 h, cells were washed twice in FACS buffer and stained with the following antibodies: αCD3 PerCPCy5.5, αCD4 FITC, αCD8 BV421, αCD137 APC, and near IR viability dye for 30 minutes at 4° C. in the dark. […] Cells were then washed twice with FACS buffer and recorded with a Becton Dickinson Fortessa or LSRII flow cytometer.

`CC(=O)O[C@@]12CO[C@@H]1C[C@H](O)[C@@]1(C)C(=O)[C@H](O)C3=C(C)[C@@H](OC(=O)[C@H](O)[C@@H](NC(=O)OC(C)(C)C)c4ccccc4)C[C@@](O)([C@@H](OC(=O)c4ccccc4)[C@H]21)C3(C)C` [docetaxel] was tested, and the “killing of T cells (MTT)” value (mouse splenic T cells) was “did not induce significant killing of T cells”, the “Jurkat T cells survival (MTT)” value (Jurkat T cells) was “did not significantly reduce Jurkat T cells survival” and the “IFNγ secretion by T cells” value (tumor-reactive T cells) was “did not enhance IFNγ secretion”. The T cell viability (tumor-reactive T cells) was “did not significantly alter T cell viability”, the “ability of T cells to recognize tumor organoids (CD137)” value (tumor-reactive T cells) was “did not increase” and the “expression of CD137, CD107 or PD1” value (tumor-reactive T cells) was “did not increase”.
